In publication PMC11643744, “New Conjugates of Vancomycin with Cell-Penetrating Peptides—Synthesis, Antimicrobial Activity, Cytotoxicity, and BBB Permeability Studies” (Molecules, 2024):
≈ marks a conversion by molar mass, not a printed value. Where “and” joins values, the source holds several entries; their conditions need not be identical. Identical values can stand only once. Like-named read-outs stand apart in the source and are kept apart here.

Key:
[1] = system: S. aureus ATCC 29213; assay: microbe, parasite or virus in culture; type: cell-based, Staphylococcus aureus
Method: (§1) The antimicrobial activity of the synthesized compounds was evaluated against four reference bacterial strains: Staphylococcus aureus (ATCC 29213), Enterococcus faecalis (ATCC 29212), Escherichia coli (ATCC 25922), and Pseudomonas aeruginosa (ATCC 27853), which are commonly used for determining antibacterial activity. In addition, two clinical strains, S. aureus (MRSA) and E. faecium (VRE), were included in the study. The bacterial strains were inoculated from Selectrol discs (Biomaxima SA, Lublin, Poland) onto blood agar (Graso Biotech, Starogard Gdański, Poland) and incubated at 37 °C for 24 h. Before testing, the strains were cultured aerobically on blood agar at 37 °C for 24 h.
(§2) The susceptibility of microorganisms to the synthesized compounds was determined using the broth microdilution assay, following the guidelines outlined by CLSI [30]. The final concentrations of the tested compounds in Mueller–Hinton broth, in 96-well plates (VWR International Sp. z o.o., Gdańsk, Poland), ranged from 0.125 to 256 mg/L. To prepare the bacterial suspension, bacteria from the overnight culture on blood agar were diluted in sterile 0.9% NaCl to achieve a turbidity equivalent to a 0.5 McFarland standard. The adjusted inoculum suspension was further diluted in Mueller–Hinton broth so that after inoculation, each well contained approximately 5 × 10^5 CFU/mL. Aliquots (5 µL) of bacterial suspension were added to each solution. The sterility control (containing the broth) and the growth control (containing the reference strain in broth without the tested compound) were also set up. The antibiotics vancomycin and gentamicin were used as a control. The plates were incubated at 37 °C under aerobic conditions. The results are expressed as the MIC of the tested compounds, which was defined as the lowest concentration at which no visible growth of bacteria (no turbidity) was observed. The assay was performed in triplicate.

[2] = system: S. aureus MRSA (clinical isolate no 203); assay: microbe, parasite or virus in culture; type: cell-based, Staphylococcus aureus; settings: read-out: MIC S. aureus MRSA
Method: as §1, §2

[3] = system: Pseudomonas aeruginosa (ATCC 27853); assay: Broth microdilution MIC, P. aeruginosa reference strain; type: cell-based
Method: as §1
The susceptibility of microorganisms to the synthesized compounds was determined using the broth microdilution assay, following the guidelines outlined by CLSI [30]. The final concentrations of the tested compounds in Mueller–Hinton broth, in 96-well plates (VWR International Sp. z o.o., Gdańsk, Poland), ranged from 0.125 to 256 mg/L. To prepare the bacterial suspension, bacteria from the overnight culture on blood agar were diluted in sterile 0.9% NaCl to achieve a turbidity equivalent to a 0.5 McFarland standard. […] The results are expressed as the MIC of the tested compounds, which was defined as the lowest concentration at which no visible growth of bacteria (no turbidity) was observed. […]

[4] = system: E. coli ATCC 25922; assay: microbe, parasite or virus in culture; type: cell-based, Escherichia coli; settings: reference strain
Method: as §1, §2

[5] = system: E. faecalis ATCC 29212; assay: microbe, parasite or virus in culture; type: cell-based, Enterococcus faecalis
Method: as §1, §2

[6] = system: E. faecium VRE (clinical isolate UCK 7979384); assay: microbe, parasite or virus in culture; type: cell-based; settings: read-out: MIC E. faecium VRE
Method: as §1, §2

[7] = PAMPA-BBB assay; settings: 20 h incubation, mean ± SEM
Excerpt: This assay utilized a 96-well plate assembly consisting of a filter plate pre-coated with polar brain lipids (donor plate) and a receiver plate (acceptor plate). The phospholipid mixture used to coat the membrane was extracted from porcine polar brain lipids, with the following composition: 12.6% phosphatidylcholine, 33.1% phosphatidylethanolamine, 18.5% phosphatidylserine, 4.1% phosphatidylinositol, 0.8% phosphatidic acid, and 30.9% of other compounds, including cerebrosides, sulfatides, and pigments.
In each well of the donor filtration plate (Multiscreen Filter Plate, PVDF with a pore size of 0.45 µm), 5 µL of the phospholipid mixture in n-dodecane (20 mg/mL) was carefully applied to form the artificial membrane. After coating, 200 µL of phosphate-buffered saline (PBS at pH 7.4) containing 5% dimethyl sulfoxide (DMSO) as a co-solvent, and the test compound (at a concentration of 20 µM) was added to each well of the donor plate (in triplicate). […] The plate lid was then replaced and the resulting assembled donor–acceptor plates were incubated at room temperature for 20 h. After this time, the donor plate was removed and solutions from each well of both acceptor and donor plates were collected for further analysis. The concentrations of the tested compounds were determined by LC-MS. The analysis was conducted by UHPLC-MS system (Shimadzu Nexera X2 with LCMS-2020 detector) using a ReproSil Pure 120 ODS-3 column (Dr. Maisch GmbH, 100 × 2 mm, 2.4 µm particle size) with several gradients of ACN with 0.1% FA and 0.05% TFA at a flow rate of 0.3 mL/min. The eluted solution was monitored by an ESI-MS detector operated in a selected ion monitoring mode (SIM). […] CE=CD×VD+CA×VA/VD+VA

[8] = system: S. aureus (ATCC 29213); assay: Checkerboard assay, interaction of Van with CPP components (FICI); type: cell-based, Staphylococcus aureus; settings: Van alone
Method: To determine possible interactions between Van and the CPP components of the conjugates, fractional inhibitory concentrations (FICs) were calculated for the tested compounds (Prop-Tat (47–57) and Prop-Arg9) using the following formula: FICA = MICA(with B)/MICA, FICB = MICB(with A)/MICB. To determine MICA(with B) and MICB(with A), a checkerboard assay was carried out in 96-well microtiter plates. Each test was performed in duplicate. The concentration range was 1.07 to 8 µg/mL for Van, 2.13 to 16 µg/mL for Prop-Tat (47–58), and 8.54 to 64 µg/mL for Prop-Arg9. Aliquots of 5 μL of bacterial suspension (at a concentration of 10^7 CFU/mL) were added to each well of the 96-well plate containing 100 μL of test compounds in Mueller–Hinton broth. The bacterial strain used was S. aureus (ATCC 29213). The plates were then incubated at 37 °C for 24 h. […] FIC values for Van, Prop-Tat (47–57) and Prop-Arg9 were calculated as follows: FICVan = MICVan+Prop-Tat (47–57) or FICVan = MICVan+Prop-Arg9 divided by MIC of Van alone, FICProp-Tat (47–57) = MICProp-Tat (47–57)+Van divided by MIC of Prop-Tat (47–57) alone, and FICProp-Arg9 = MICProp-Arg9+Van divided by MIC of Prop-Arg9 alone. The FIC indexes (FICIs) were calculated for the tested compounds as the sum of FICA and FICB.

[9] = system: normal human fibroblasts, BJ line (CRL-2522); assay: Neutral red cytotoxicity assay; settings: 24 h
Method: Normal human fibroblasts, BJ line (CRL-2522™), Eagle’s Minimum Essential Medium (EMEM), and fetal bovine serum (FBS) were obtained from ATCC (Manassas, VA, USA). Cells were grown following ATCC guidelines in an EMEM medium supplemented with 10% FBS at 37 °C in a humidified atmosphere of 95% air and 5% CO2 in a HeraCell 150 incubator (Heraeus, Hanau, Germany).
The assay was performed as per previously published protocols with slight modifications. In brief, BJ cells were plated in 96-well tissue culture plates (Nest Scientific Biotechnology, Wuxi, China) at a density of 6 × 10^3 cells per well and allowed to attach for 24 h in EMEM supplemented with 10% FBS. After the incubation period, the medium was removed, and 10% dimethyl sulfoxide (DMSO)-treated cells (Sigma-Aldrich, St. Louis, MO, USA) were used as a positive control, while nontreated cells served as a negative control.
The cells were treated with peptides suspended in EMEM medium supplemented with 10% FBS and incubated for 24 h at 37 °C in a humidified atmosphere of 95% air and 5% CO2. After the incubation, the supernatants were discarded and replaced with 100 µL of non-supplemented EMEM containing 0.33% neutral red (Sigma-Aldrich) diluted 1:40. The cells were incubated for an additional 2 h at 37 °C. Following incubation, the neutral red medium was removed, and the cells were washed with 100 µL of phosphate-buffered saline (PBS) per well.
To extract the dye into the solution, the cells were treated with 150 µL of a solution containing 50% ethanol (Alchem, Torun, Poland), 49% distilled H2O, and 1% acetic acid (Alchem, Torun, Poland) and incubated under shaking at 37 °C for 10 min. Absorbance was measured at 540 nm using a Synergy H1 plate reader (BioTek Instruments, Winooski, VT, USA). The assay was performed in triplicate to ensure reproducibility.

[10] = reference strain, read-out: MIC S. aureus ATCC 29213
[11] = methicillin-resistant clinical isolate no 203
[12] = reference strain, read-out: MIC E. faecalis ATCC 29212
[13] = vancomycin-resistant clinical isolate UCK 7979384

CNC(C)C1CCC(N)C(OC2C(N)CC(N)C(OC3OCC(C)(O)C(NC)C3O)C2O)O1 (stereo not drawn) [Gentamicin]
MIC ([1]; Staphylococcus aureus, ATCC29213, reference strain, read-out: MIC S. aureus ATCC 29213): 0.24 µg/mL and 0.5 µM | MIC ([2]; Staphylococcus aureus, methicillin-resistant clinical isolate no 203): 0.48 µg/mL and 1 µM | MIC ([3]; Pseudomonas aeruginosa, ATCC27853, reference strain): 4.08 µM (≈ 1.95 µg/mL) | MIC ([4]; Escherichia coli, ATCC25922): 1.95 µg/mL and 4.08 µM | MIC ([5]; Enterococcus faecalis, ATCC29212, reference strain, read-out: MIC E. faecalis ATCC 29212): 7.8 µg/mL and 16.3 µM | MIC ([6]; Enterococcus faecium, VRE, vancomycin-resistant clinical isolate UCK 7979384): 7.8 µg/mL and 16.3 µM

CN[C@H](CC(C)C)C(=O)N[C@H]1C(=O)N[C@@H](CC(N)=O)C(=O)N[C@H]2C(=O)N[C@H]3C(=O)N[C@H](C(=O)N[C@H](C(=O)O)c4cc(O)cc(O)c4-c4cc3ccc4O)[C@H](O)c3ccc(c(Cl)c3)Oc3cc2cc(c3O[C@@H]2O[C@H](CO)[C@@H](O)[C@H](O)[C@H]2O[C@H]2C[C@](C)(N)[C@H](O)[C@H](C)O2)Oc2ccc(cc2Cl)[C@H]1O [Vancomycin]
MIC ([1]; Staphylococcus aureus, ATCC29213, read-out: MIC S. aureus ATCC 29213): 2 µg/mL and 1.35 µM | MIC ([2]; Staphylococcus aureus): 1.5 µg/mL and 1.01 µM | R, mass retention [7]: 11.3 ± 3.4% | inhibitory activity against P. aeruginosa ([3]; at the concentrations tested): resistant | MIC ([5]; Enterococcus faecalis, ATCC29212, read-out: MIC E. faecalis ATCC 29212): 8 µg/mL and 5.38 µM | MICA [8]: 2 µg/mL | MIC ([6]; Enterococcus faecium, VRE): > 256 µg/mL and > 172 µM | concentration above which cytotoxicity was shown [9]: above 16 µg/mL | effect on cell viability ([9]; at concentrations up to 4 µg/mL): did not substantially affect cell viability

CC[C@H](C)[C@H](NC(=O)[C@H](CCCCN)NC(=O)[C@H](CCCCN)NC(=O)[C@H](C)NC(=O)[C@H](CC(C)C)NC(=O)[C@H](C)NC(=O)[C@H](C)NC(=O)[C@H](CC(C)C)NC(=O)[C@H](C)NC(=O)[C@H](CCCCN)NC(=O)[C@H](CC(C)C)NC(=O)[C@H](CC(N)=O)NC(=O)[C@@H](NC(=O)[C@H](CCCCN)NC(=O)CNC(=O)[C@H](CC(C)C)NC(=O)[C@H](CC(C)C)NC(=O)[C@H](Cc1ccc(O)cc1)NC(=O)CNC(=O)[C@H](C)N)[C@@H](C)CC)C(=O)N[C@@H](CC(C)C)C(N)=O [compound 1, TP10]
MIC [1, 10]: 14.7 µM (≈ 32.1 µg/mL) | MIC [2, 11]: 3.67 µM (≈ 8.01 µg/mL) | MIC [4]: 14.7 µM (≈ 32.1 µg/mL) | MIC [5, 12]: 29.3 µM (≈ 63.9 µg/mL)

C#CC(=O)N[C@@H](Cc1ccc(O)cc1)C(=O)NCC(=O)N[C@@H](CCCNC(=N)N)C(=O)N[C@@H](CCCCN)C(=O)N[C@@H](CCCCN)C(=O)N[C@@H](CCCNC(=N)N)C(=O)N[C@@H](CCCNC(=N)N)C(=O)N[C@@H](CCC(N)=O)C(=O)N[C@@H](CCCNC(=N)N)C(=O)N[C@@H](CCCNC(=N)N)C(=O)N[C@@H](CCCNC(=N)N)C(N)=O [compound 4]
MIC [1, 10]: 4.97 µM (≈ 8.01 µg/mL) | MIC [2, 11]: 19.9 µM (≈ 32.1 µg/mL) | R, mass retention [7]: 3.3 ± 0.7% | MIC [4]: 79.5 µM (≈ 128 µg/mL) | MIC [5, 12]: 159 µM (≈ 256 µg/mL) | MIC [6, 13]: 19.9 µM (≈ 32.1 µg/mL) | effect on cell viability ([9]; across the tested concentration range): did not significantly affect cell viability

C#CC(=O)N[C@@H](CCCNC(=N)N)C(=O)N[C@@H](CCCNC(=N)N)C(=O)N[C@@H](CCCNC(=N)N)C(=O)N[C@@H](CCCNC(=N)N)C(=O)N[C@@H](CCCNC(=N)N)C(=O)N[C@@H](CCCNC(=N)N)C(=O)N[C@@H](CCCNC(=N)N)C(=O)N[C@@H](CCCNC(=N)N)C(=O)N[C@@H](CCCNC(=N)N)C(N)=O [compound 14]
MIC [1, 10]: 21.7 µM (≈ 32 µg/mL) | MIC [2, 11]: 2.71 µM (≈ 4 µg/mL) | R, mass retention [7]: 8.0 ± 1.2% | MIC [4]: 43 µM (≈ 63.4 µg/mL) | MIC [5, 12]: 87 µM (≈ 128 µg/mL) | MIC [6, 13]: 21.7 µM (≈ 32 µg/mL)

CN[C@H](CC(C)C)C(=O)N[C@H]1C(=O)N[C@@H](CC(N)=O)C(=O)N[C@H]2C(=O)N[C@H]3C(=O)N[C@H](C(=O)N[C@H](C(=O)NCCSSCCn4cc(C(=O)N[C@@H](CCCNC(=N)N)C(=O)N[C@@H](CCCNC(=N)N)C(=O)N[C@@H](CCCNC(=N)N)C(=O)N[C@@H](CCCNC(=N)N)C(=O)N[C@@H](CCCNC(=N)N)C(=O)N[C@@H](CCCNC(=N)N)C(=O)N[C@@H](CCCNC(=N)N)C(=O)N[C@@H](CCCNC(=N)N)C(=O)N[C@@H](CCCNC(=N)N)C(N)=O)nn4)c4cc(O)cc(O)c4-c4cc3ccc4O)[C@H](O)c3ccc(c(Cl)c3)Oc3cc2cc(c3O[C@@H]2O[C@H](CO)[C@@H](O)[C@H](O)[C@H]2O[C@H]2C[C@](C)(N)[C@H](O)[C@H](C)O2)Oc2ccc(cc2Cl)[C@H]1O [compound 17]
MIC S. aureus ATCC 29213 ([1]; reference strain): 4 µg/mL (≈ 1.3 µM) | MIC [1, 10]: 1.30 µM (≈ 4.01 µg/mL) | R, mass retention [7]: 20.7 ± 0.3% | MIC [4]: >83 µM | MIC E. coli ATCC 25922 [4]: >256 µg/mL | MIC E. faecalis ATCC 29212 ([5]; reference strain): 8 µg/mL (≈ 2.59 µM) | MIC [5, 12]: 2.59 µM (≈ 7.99 µg/mL)
